According to patent US11026877B2, “Cosmetic compositions for bleaching the skin” (Henkel AG & Co. KGaA, priority 2014, dated 2021):

Legend:
Type in all cases: cell-based, human
Parameters in all cases: key: + stands for increased expression; − for reduced expression; 0 for no change
Details in all cases: topical, 24 hours, 30 μL, in water with 3% by weight PEG-40 Hydrogenated Castor Oil; in comparison with the blank control
ckit = experiment: Gene expression by quantitative real-time PCR in reconstructed melanocyte models type VI (Skinethic): ckit
Method: (§1) The effect of licorice extract (oil-soluble) and ascorbyl tetraisopalmitate on the expression of melanogenesis-relevant genes was studied in reconstructed melanocyte models type VI from the company Skinethic. In this case, human keratinocytes were cultured together with type VI melanocytes, so that a very dark skin model forms. Together the cells form a three-dimensional epithelial tissue. Three models each were treated topically for 24 hours with 30 μL of the test formulations. In this case, the formulation is first applied to the model and then carefully distributed with a brush. Incubation then occurs at 37° C. with 5% CO2. Untreated models and models treated with a blank control (3% PEG-40 Hydrogenated Castor Oil in water) were run concurrently as the control. The gene expressions of the melanocyte-specific markers were studied using quantitative real-time PCR. […] In the subsequent PCR reaction, which is carried out with the aid of gene-specific primers for the particular markers and is used for the amplification of the target gene segments, the formation of the PCR products is detected online via a fluorescence signal. The fluorescence signal in this case is proportional to the amount of the formed PCR product. The greater the expression of a specific gene, the greater the amount of the formed PCR product and the greater the fluorescence signal. […]

Tyrosinase = experiment: Gene expression by quantitative real-time PCR in reconstructed melanocyte models type VI (Skinethic): Tyr
Method: as §1

TRP2 = experiment: Gene expression by quantitative real-time PCR in reconstructed melanocyte models type VI (Skinethic): TRP2
Method: as §1

gp100 = experiment: Gene expression by quantitative real-time PCR in reconstructed melanocyte models type VI (Skinethic): gp100
Method: as §1

TRP1 = experiment: Gene expression by quantitative real-time PCR in reconstructed melanocyte models type VI (Skinethic): TRP1
Method: as §1

- Tyr gene expression (Tyrosinase): +
SMILES: CCCCCCCCC(CCCCCC)C(=O)OC[C@H](OC(=O)C(CCCCCC)CCCCCCCC)[C@H]1OC(=O)C(OC(=O)C(CCCCCC)CCCCCCCC)=C1OC(=O)C(CCCCCC)CCCCCCCC (some centres unmarked) [0.05% Vitamin tetraisopalmitate, ascorbyl tetraisopalmitate]
- ckit gene expression (ckit): 0
- TRP2 gene expression (TRP2): +
- Gp100 gene expression (gp100): −
- TRP1 gene expression (TRP1): −
